Test results as given in US20210361731A1 (Phenolics, LLC, priority 2020, published 2021).

Experiments:
vegetarian subjects = conditions: 5 g/day for six weeks; cited from earlier work
brain aging = conditions: 1 g daily, 12 weeks; cited from earlier work
Caco2 monolayer = experiment: Permeability of α-GPC through a Caco2 monolayer in the presence and absence of blueberry polyphenol extract; type: in vitro ADME; parameters: cumulative L-α-GPC, averaged over runs: scale not given here; conditions: for cumulative L-α-GPC, averaged over runs: average of runs 1 and 2; for cumulative L-α-GPC: 5 mM α-GPC in DPBS alone or with 1 mg/ml blueberry polyphenol extract
Description: In another series of experiments, the permeability of α-GPC through a Caco2 monolayer was measured to determine whether the presence of a blueberry-based polyphenol extract affected permeability.
More particularly, donor GPC concentrations were reduced to 5 mM. […] This experiment consisted of two independent runs (as identified below as run 1 and run 2). […] The data from the runs is summarized in Table 2, illustrated in FIG. 2 (Total Alpha GPC permeability through a Caco2 monolayer) and averaged below in Table 3. The averaged data is illustrated in FIG. 3. In each of the graphs, the vertical axis units are cumulative L-α-GPC in μg/cm2 and the horizontal axis units are minutes.

hippocampus of the rats = conditions: cited from earlier work
[1] = system: patients with probable senile dementia of Alzheimer's type; conditions: cited from earlier work
[2] = system: patients with dementia disorders; conditions: 1570 patients in 10 studies; cited from earlier work
[3] = system: cognitive impairment due to Alzheimer's disease; conditions: 400 mg capsules three times daily; cited from earlier work
rats = conditions: 250 mg/kg injections for three weeks, three weeks after pilocarpine; cited from earlier work
[4] = 100-300 mg/day; cited from earlier work

For `CN(CC(=O)O)C(=N)N` [creatine], which “working memory and intelligence” value (vegetarian subjects) is on record?
Its value is “Positive results”.

For `NC(=O)CN1CC(O)CC1=O` (centres unmarked) [oxiracetam], which “clinical response in brain aging” value (brain aging) is on record?
Its value is “early improvement which was maintained during the therapy but was rapidly attenuated after discontinuation of the therapy”.

What does the source list for `C[N+](C)(C)CCOP(=O)([O-])OC[C@H](O)CO` [α-GPC, Alpha-glycerylphosphorylcholine]?
effect of α-GPC on permeation of the blueberry polyphenols through the Caco2 monolayer (Caco2 monolayer): did not significantly change; cumulative L-α-GPC, averaged over runs (Caco2 monolayer; 15 min): 0.128 μg/cm2; cumulative L-α-GPC, averaged over runs (Caco2 monolayer; 30 min): 0.471 μg/cm2; cumulative L-α-GPC, averaged over runs (Caco2 monolayer; 45 min): 0.643 μg/cm2; cumulative L-α-GPC, averaged over runs (Caco2 monolayer; 60 min): 0.815 μg/cm2; cumulative L-α-GPC, averaged over runs (Caco2 monolayer; 75 min): 1.017 μg/cm2; cumulative L-α-GPC, averaged over runs (Caco2 monolayer; 90 min): 1.292 μg/cm2; cumulative L-α-GPC (Caco2 monolayer; run 1, 15 min): 18.75 μg/cm2; cumulative L-α-GPC (Caco2 monolayer; run 1, 30 min): 41.37 μg/cm2; cumulative L-α-GPC (Caco2 monolayer; run 1, 45 min): 67.92 μg/cm2; cumulative L-α-GPC (Caco2 monolayer; run 1, 60 min): 103.2 μg/cm2; cumulative L-α-GPC (Caco2 monolayer; run 1, 75 min): 150.0 μg/cm2; cumulative L-α-GPC (Caco2 monolayer; run 1, 90 min): 222.4 μg/cm2; cumulative L-α-GPC (Caco2 monolayer; run 2, 15 min): 47.16 μg/cm2; cumulative L-α-GPC (Caco2 monolayer; run 2, 30 min): 200.9 μg/cm2; cumulative L-α-GPC (Caco2 monolayer; run 2, 45 min): 262.8 μg/cm2; cumulative L-α-GPC (Caco2 monolayer; run 2, 60 min): 316.1 μg/cm2; cumulative L-α-GPC (Caco2 monolayer; run 2, 75 min): 373.3 μg/cm2; cumulative L-α-GPC (Caco2 monolayer; run 2, 90 min): 442.1 μg/cm2; clinical response in brain aging (brain aging): slower but more sustained; acetylcholine release in the hippocampus (hippocampus of the rats; 75 mg/kg i.g.): able to increase acetylcholine release; dose with maximum effect on acetylcholine release (hippocampus of the rats; i.g.): 300 mg/kg; improvements compared with the ST200 patients ([1]; ST200 1000 mg morning and 500 mg afternoon): significantly better; intellectual and emotional impairments ([1]; oral 800 mg morning and 400 mg afternoon, six months): significantly improved; patient clinical results, cognitive symptoms of adult-onset dementia disorders [2]: improved patient clinical results; treatment of the cognitive symptoms of Alzheimer's disease [3]: useful; cognitive function (rats): improved; neurogenesis (rats): increased; memory, concentration, and focus [4]: helps maintain and improve; peak power and force output during strenuous exercises [4]: helps to increase
